Measurements taken from US9376387B2 (priority 2013, dated 2016).
Read-outs that look alike come from different tables or passages of the source.

Legend:
[1] = biological target: T1, hAChE (human erythrocyte membranes as a AChE source) (Homo sapiens, UniProt P22303); assay: acetylcholinesterase (AChE) activity, modified Ellman method; assay type: biochemical; settings: acetylthiocholine iodide substrate, pH=7.4
T1 construct: human erythrocyte membranes as a AChE source; from tissue; host or cells: human erythrocyte membranes
T1 sequence (P22303 32-617 isoform P22303-2 limits assumed): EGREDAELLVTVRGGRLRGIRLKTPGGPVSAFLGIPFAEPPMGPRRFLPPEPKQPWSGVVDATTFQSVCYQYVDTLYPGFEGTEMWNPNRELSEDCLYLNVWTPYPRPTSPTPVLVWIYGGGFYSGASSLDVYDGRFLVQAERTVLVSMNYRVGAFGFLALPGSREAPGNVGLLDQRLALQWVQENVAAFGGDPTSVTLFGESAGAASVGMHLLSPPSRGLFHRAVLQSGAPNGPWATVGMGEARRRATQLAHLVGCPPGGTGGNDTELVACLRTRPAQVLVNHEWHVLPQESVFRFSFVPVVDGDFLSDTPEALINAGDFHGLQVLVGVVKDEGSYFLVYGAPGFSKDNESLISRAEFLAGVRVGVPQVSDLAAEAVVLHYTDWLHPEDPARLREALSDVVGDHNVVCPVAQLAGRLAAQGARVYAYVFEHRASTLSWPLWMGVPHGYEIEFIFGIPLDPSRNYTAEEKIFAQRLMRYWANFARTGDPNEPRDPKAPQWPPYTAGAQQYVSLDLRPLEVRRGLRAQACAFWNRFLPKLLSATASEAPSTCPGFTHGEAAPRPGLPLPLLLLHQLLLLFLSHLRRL

[2] = biological target: EqBuChE (Equus caballus, UniProt P81908); assay: biochemical
Chain of EqBuChE (P81908 whole entry): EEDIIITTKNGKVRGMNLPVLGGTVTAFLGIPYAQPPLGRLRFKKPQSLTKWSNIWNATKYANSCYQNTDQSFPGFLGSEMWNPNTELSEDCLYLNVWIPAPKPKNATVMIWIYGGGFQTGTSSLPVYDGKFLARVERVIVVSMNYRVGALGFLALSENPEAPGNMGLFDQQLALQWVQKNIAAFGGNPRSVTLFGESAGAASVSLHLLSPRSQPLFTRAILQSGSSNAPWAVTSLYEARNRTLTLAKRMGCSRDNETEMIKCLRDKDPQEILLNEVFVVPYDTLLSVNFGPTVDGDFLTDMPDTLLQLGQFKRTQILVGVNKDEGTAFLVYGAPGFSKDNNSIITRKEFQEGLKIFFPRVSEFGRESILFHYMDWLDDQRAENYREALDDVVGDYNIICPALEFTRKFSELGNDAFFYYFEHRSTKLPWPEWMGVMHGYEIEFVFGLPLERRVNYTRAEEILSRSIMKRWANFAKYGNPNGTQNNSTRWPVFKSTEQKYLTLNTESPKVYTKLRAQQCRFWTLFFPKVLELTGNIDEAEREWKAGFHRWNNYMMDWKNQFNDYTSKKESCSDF

[3] = hAChE IC50, modified Ellman method

Row | SMILES | IC50 [1, 3] [nM] | IC50 ([2]; EqBuChE IC50) [nM] | IC50 ([1]; modified Ellman method, read-out: hAChE IC50) [nM] | IC50 ([2]; read-out: EqBuChE IC50) [nM]
1 | COc1ccc2c(c1)CCC(Cc1cc[n+](Cc3ccccc3Cl)cc1C(C)=O)C2=O (centres unmarked) [Compound 126, 2-[[3-acetyl-1-[(2-chlorophenyl)methyl]pyridin-1-ium-4-yl]methyl]-6-methoxy-tetralin-1-one bromide] | 29 | 256 | – | –
2 | CC(=O)c1c[n+](Cc2ccccc2C)ccc1CC1Cc2cc(C)c(C)cc2C1=O (centres unmarked) [Compound 152, 2-[[3-acetyl-1-(o-tolylmethyl)pyridin-1-ium-4-yl]methyl]-5,6-dimethyl-indan-1-one bromide] | 37.7 | 262 | – | –
3 | COc1ccc2c(c1)CCC(Cc1cc[n+](Cc3ccccc3[N+](=O)[O-])cc1C(C)=O)C2=O (centres unmarked) [Compound 125, 2-[[3-acetyl-1-[(2-nitrophenyl)methyl]pyridin-1-ium-4-yl]methyl]-6-methoxy-tetralin-1-one bromide] | 57.7 | 592 | – | –
4 | COc1ccc2c(c1)CC(Cc1cc[n+](Cc3ccccc3C)cc1C(C)=O)C2=O (centres unmarked) [Compound 138, 2-[[3-acetyl-1-(o-tolylmethyl)pyridin-1-ium-4-yl]methyl]-5-methoxy-indan-1-one bromide] | 30 | 2990 | – | –
5 | COc1ccc2c(c1)CCC(Cc1cc[n+](Cc3ccccc3F)cc1C(C)=O)C2=O (centres unmarked) [Compound 127, 2-[[3-acetyl-1-[(2-fluorophenyl)methyl]pyridin-1-ium-4-yl]methyl]-6-methoxy-tetralin-1-one bromide] | 43 | 489 | – | –
6 | CC(=O)C1=CN(Cc2ccccc2C)C=CC1CC1Cc2cc(C)c(C)cc2C1=O (centres unmarked) [Compound 166, 2-[[3-acetyl-1-(o-tolylmethyl)-4H-pyridin-4-yl]methyl]-5,6-dimethyl-indan-1-one] | 653 | 1260 | – | –
7 | COc1ccc2c(c1)CCC(Cc1cc[n+](Cc3ccc(Cl)cc3)cc1C(C)=O)C2=O (centres unmarked) [Compound 131, 2-[[3-acetyl-1-[(4-chlorophenyl)methyl]pyridin-1-ium-4-yl]methyl]-6-methoxy-tetralin-1-one bromide] | 568 | 6090 | – | –
8 | COc1cc2c(cc1OC)C(=O)C(CC1C=CN(Cc3cccc(Cl)c3)C=C1C(C)=O)C2 (centres unmarked) [Compound 77, 2-[[3-acetyl-1-[(3-chlorophenyl)methyl]-4H-pyridin-4-yl]methyl]-5,6-dimethoxy-indan-1-one] | 543 | 13500 | – | –
9 | CC(=O)c1c[n+](Cc2ccccc2C)ccc1CC1Cc2cc3c(cc2C1=O)OCO3 (centres unmarked) [Compound 139, 6-[[3-acetyl-1-(o-tolylmethyl)pyridin-1-ium-4-yl]methyl]-5,6-dihydrocyclopenta[f][1,3]benzodioxol-7-one bromide] | 60 | 1620 | – | –
10 | COc1ccc2c(c1)CCC(Cc1cc[n+](Cc3ccc(C)cc3)cc1C(C)=O)C2=O (centres unmarked) [Compound 130, 2-[[3-acetyl-1-(p-tolylmethyl)pyridin-1-ium-4-yl]methyl]-6-methoxy-tetralin-1-one bromide] | 556 | 4140 | – | –
11 | COc1ccc2c(c1)CCC(Cc1cc[n+](Cc3ccccc3)cc1C(C)=O)C2=O (centres unmarked) [Compound 119, 2-[(3-acetyl-1-benzyl-pyridin-1-ium-4-yl)methyl]-6-methoxy-tetralin-1-one bromide] | 71 | 412 | – | –
12 | COc1ccc2c(c1)CCC(Cc1cc[n+](Cc3cccc([N+](=O)[O-])c3)cc1C(C)=O)C2=O (centres unmarked) [Compound 123, 2-[[3-acetyl-1-[(3-nitrophenyl)methyl]pyridin-1-ium-4-yl]methyl]-6-methoxy-tetralin-1-one bromide] | 78.6 | 1320 | – | –
13 | COc1ccc2c(c1)CCC(Cc1cc[n+](Cc3cccc(C)c3)cc1C(C)=O)C2=O (centres unmarked) [Compound 120, 2-[[3-acetyl-1-(m-tolylmethyl)pyridin-1-ium-4-yl]methyl]-6-methoxy-tetralin-1-one bromide] | 110 | 596 | – | –
14 | COc1cc2c(cc1OC)C(=O)C(CC1C=CN(Cc3ccccc3)C=C1C(C)=O)CC2 (centres unmarked) [Compound 162, 2-[(3-acetyl-1-benzyl-4H-pyridin-4-yl)methyl]-6,7-dimethoxy-tetralin-1-one] | 415 | 3970 | – | –
15 | COc1ccc2c(c1)CCC(Cc1cc[n+](Cc3ccccc3C)cc1C(C)=O)C2=O (centres unmarked) [Compound 121, 2-[[3-acetyl-1-(o-tolylmethyl)pyridin-1-ium-4-yl]methyl]-6-methoxy-tetralin-1-one bromide] | 10 | 433 | – | –
16 | COc1ccc2c(c1)CCC(Cc1cc[n+](Cc3cccc(F)c3)cc1C(C)=O)C2=O (centres unmarked) [Compound 128, 2-[[3-acetyl-1-[(3-fluorophenyl)methyl]pyridin-1-ium-4-yl]methyl]-6-methoxy-tetralin-1-one bromide] | 55 | 412 | – | –
17 | COc1ccc2c(c1)CCC(Cc1cc[n+](Cc3ccccc3)cc1Br)C2=O (centres unmarked) [Compound 117, 2-[(1-benzyl-3-bromo-pyridin-1-ium-4-yl)methyl]-6-methoxy-tetralin-1-one bromide] | 20 | 447 | – | –
18 | COc1cc2c(cc1OC)C(=O)C(Cc1cc[n+](Cc3ccccc3C)cc1Br)C2 (centres unmarked) [Compound 141, 2-[[3-bromo-1-(o-tolylmethyl)pyridin-1-ium-4-yl]methyl]-5,6-dimethoxy-indan-1-one bromide] | 0.053 | 2290 | – | –
19 | COc1cc2c(cc1OC)C(=O)C(Cc1cc[n+](Cc3ccccc3Cl)cc1Br)C2 (centres unmarked) [Compound 140, 2-[[3-bromo-1-[(2-chlorophenyl)methyl]pyridin-1-ium-4-yl]methyl]-5,6-dimethoxy-indan-1-one bromide] | 0.255 | 984 | – | –
20 | COc1ccc2c(c1)CCC(Cc1cc[n+](Cc3cccc(C)c3)cc1Br)C2=O (centres unmarked) [Compound 118, 2-[[3-bromo-1-(m-tolylmethyl)pyridin-1-ium-4-yl]methyl]-6-methoxy-tetralin-1-one bromide] | 16.5 | 664 | – | –
21 | COc1cc2c(cc1OC)C(=O)C(Cc1cc[n+](Cc3ccccc3)cc1Br)C2 (centres unmarked) [Compound 145, 2-[(1-benzyl-3-bromo-pyridin-1-ium-4-yl)methyl]-5,6-dimethoxy-indan-1-one bromide] | – | – | 0.36 | 1790
22 | COc1cc2c(cc1OC)C(=O)C(Cc1cc[n+](Cc3cccc(Cl)c3)cc1C(C)=O)C2 (centres unmarked) [Compound 144, 2-[[3-acetyl-1-[(3-chlorophenyl)methyl]pyridin-1-ium-4-yl]methyl]-5,6-dimethoxy-indan-1-one bromide] | 3.2 | 3340 | – | –
23 | COc1cc2c(cc1OC)C(=O)C(Cc1cc[n+](Cc3ccccc3)cc1F)CC2 (centres unmarked) [Compound 133, 2[(1-benzyl-3-fluoro-pyridin-1-ium-4-yl)methyl]-6,7-dimethoxy-tetralin-1-one bromide] | 9.1 | 508 | – | –
24 | COc1ccc2c(c1)CCC(Cc1cc[n+](Cc3ccc(F)cc3)cc1C(C)=O)C2=O (centres unmarked) [Compound 129, 2-[[3-acetyl-1-[(4-fluorophenyl)methyl]pyridin-1-ium-4-yl]methyl]-6-methoxy-tetralin-1-one bromide] | 141 | 171 | – | –
25 | COc1ccc2c(c1)CCC(Cc1cc[n+](Cc3ccccc3)cc1C(C)=O)C2=O (centres unmarked) [Compound 82, 2-[(3-acetyl-1-benzyl-pyridin-1-ium-4-yl)methyl]-6-methoxy-tetralin-1-one chloride] | 76 | 371 | – | –
